Assay results taken from paper PMC4027206, “Crystal structure of Saccharomyces cerevisiae mitochondrial GatFAB reveals a novel subunit assembly in tRNA-dependent amidotransferases” (Nucleic Acids Research, 2014).

Tests used:
[1] = molecular target: T1, GatFABF24–183 (pseudo-wild-type, full-length GatFAB) (Saccharomyces cerevisiae, UniProt Q03557); test: glutaminase assay, […]Gln, TLC; type: biochemical; settings: 50 μM [14C]L-glutamine; Glu-tRNA^Gln, ATP, 12 mM MgCl2, pH 7.2, 37°C; labelled compound
T1 construct: gene HER2; heterotrimer; E. coli host; with Glutamyl-tRNA(Gln) amidotransferase subunit B, mitochondrial; Glutamyl-tRNA(Gln) amidotransferase subunit F, mitochondrial
T1 sequence (Q03557 1-464): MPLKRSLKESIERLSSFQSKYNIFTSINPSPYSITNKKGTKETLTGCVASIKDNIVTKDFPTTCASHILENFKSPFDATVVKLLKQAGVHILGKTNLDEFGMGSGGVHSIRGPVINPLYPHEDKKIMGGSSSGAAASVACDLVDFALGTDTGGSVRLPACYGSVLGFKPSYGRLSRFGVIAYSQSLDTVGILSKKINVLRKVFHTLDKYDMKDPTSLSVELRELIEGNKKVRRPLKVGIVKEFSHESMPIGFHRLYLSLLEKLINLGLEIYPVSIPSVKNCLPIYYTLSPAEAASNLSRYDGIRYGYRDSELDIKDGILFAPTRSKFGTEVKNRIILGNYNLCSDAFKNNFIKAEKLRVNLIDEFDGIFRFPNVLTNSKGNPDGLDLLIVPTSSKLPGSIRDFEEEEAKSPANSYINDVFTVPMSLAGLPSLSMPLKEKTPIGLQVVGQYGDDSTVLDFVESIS
T1 sequence (P33893 16-541 partner): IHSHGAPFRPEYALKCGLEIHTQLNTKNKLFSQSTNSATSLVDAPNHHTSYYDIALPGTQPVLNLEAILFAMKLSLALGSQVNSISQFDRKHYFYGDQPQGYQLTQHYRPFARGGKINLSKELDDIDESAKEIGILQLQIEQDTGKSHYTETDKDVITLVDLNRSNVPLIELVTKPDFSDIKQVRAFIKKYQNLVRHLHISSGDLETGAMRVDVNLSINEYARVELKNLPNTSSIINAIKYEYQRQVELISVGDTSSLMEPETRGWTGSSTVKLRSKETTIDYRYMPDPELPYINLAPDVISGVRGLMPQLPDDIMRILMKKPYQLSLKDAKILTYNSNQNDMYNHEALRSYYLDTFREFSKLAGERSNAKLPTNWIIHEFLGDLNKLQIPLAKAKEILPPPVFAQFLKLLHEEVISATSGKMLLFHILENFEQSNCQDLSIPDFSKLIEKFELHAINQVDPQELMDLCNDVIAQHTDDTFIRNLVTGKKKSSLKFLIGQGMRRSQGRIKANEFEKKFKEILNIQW
T1 sequence (P53260 24-183 partner): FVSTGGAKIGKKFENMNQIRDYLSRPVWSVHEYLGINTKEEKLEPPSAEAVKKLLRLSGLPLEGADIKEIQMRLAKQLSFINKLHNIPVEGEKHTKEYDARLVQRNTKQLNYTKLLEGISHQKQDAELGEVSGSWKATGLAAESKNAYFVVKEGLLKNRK

[2] = molecular target: T2, GatFABΔHY (Saccharomyces cerevisiae, UniProt Q03557); test: X-ray crystal structure, […] Å; type: binding; settings: 10 mM glutamine added before crystallization; GatA glutaminase site (R334, D418, near S154)
T2 construct: gene HER2; heterotrimer; E. coli host; with Glutamyl-tRNA(Gln) amidotransferase subunit B, mitochondrial; Glutamyl-tRNA(Gln) amidotransferase subunit F, mitochondrial
T2 sequence (Q03557 1-464): T1 sequence (Q03557 1-464)
T2 sequence (P33893 16-329 partner): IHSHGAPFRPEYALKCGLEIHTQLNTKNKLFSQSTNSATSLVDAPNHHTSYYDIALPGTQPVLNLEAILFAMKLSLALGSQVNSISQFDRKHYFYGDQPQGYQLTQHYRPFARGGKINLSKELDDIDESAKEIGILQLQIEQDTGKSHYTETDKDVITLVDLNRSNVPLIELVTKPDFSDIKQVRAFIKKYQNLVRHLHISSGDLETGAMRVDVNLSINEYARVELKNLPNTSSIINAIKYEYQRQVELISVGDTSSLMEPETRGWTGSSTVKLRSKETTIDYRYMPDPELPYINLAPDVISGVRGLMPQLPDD
T2 sequence (P53260 24-183 partner): T1 sequence (P53260 24-183 partner)

## NC(=O)CC[C@H](N)C(=O)O [glutamine]
[1]
  glutaminase assay, [14C]Gln, TLC: reduced activities in both GatA-mediated glutamine-hydrolysis and GatB-mediated transamidation when compared to that of the full-length
[2]
  X-ray crystal structure, 2.0 Å: the glutamine molecule is bound to the glutaminase site of GatA
